This is an account of results in patent US8404691B2, “Imidazothiazole derivatives having proline ring structure” (Daiichi Sankyo Company, Limited, priority 2009, dated 2013).

pIC50: −log10 of the molar value. Some results are limits rather than exact numbers.

As a reminder, the pIC50 is the negative decadic logarithm of the IC50, by convention in mol/L.

The target of data set [1] is T1, Mdm2/p53 binding (Homo sapiens, UniProt Q00987, L33E).
T1 construct: Mdm2 amino acids at positions 25 to 108
T1 sequence (Q00987 25-108 L33E): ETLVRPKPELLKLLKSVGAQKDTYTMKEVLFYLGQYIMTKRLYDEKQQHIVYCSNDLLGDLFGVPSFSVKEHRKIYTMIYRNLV
As to the kind of experiment: Mdm2/p53 binding assay (HTRF, His-p53 and GST-Mdm2). The settings on record: His-p53 (aa 1-132) and GST-Mdm2 (aa 25-108, L33E), 6.25 nM each, 25° C. for 1 hour. The method, then:
Next, a test compound was diluted with DMSO to produce protein buffer solution containing 10% dilution, and this buffer solution was added in an amount of 4 μL/well to the plate.
These dilutions were added in an amount of 8 μL/well (total reaction solution volume: 20 μl/well). Then, the plate was left at 25° C. for 1 hour.
The R value calculated from the well supplemented with His-p53, GST-Mdm2, the test compound, and each antibody was defined as R (sample). The R value calculated from the well supplemented with His-p53, GST-Mdm2, and each antibody but without the test compound was defined as R (control). The R value calculated from the well supplemented with GST-Mdm2, the test compound, and each antibody but without His-p53 was defined as R (background). T/C was calculated from the formula shown below. An IC50 value for Mdm2/p53 binding was calculated by sigmoid fitting. T/C=(R(sample)−R(background))/(R(control)−R(background))
For orientation: TR-FRET usually uses a lanthanide donor and a delayed reading to cut background.

In data set [2] the test system is human lung cancer-derived cell line NCI-H460 having wild-type p53. Put plainly: Cell growth inhibition assay (MTT). The class given is cell-based. The settings on record: 72 h, NCI-H460 cells, culturing 3 days, read-out: anti-cellular effect GI50 (50% growth inhibition concentration). The method, then:
A cell growth inhibition assay was conducted using human lung cancer-derived cell line NCI-H460 having wild-type p53.
NCI-H460 cells were suspended in a medium (RPMI1640 medium containing 10% fetal bovine serum) and the suspension was inoculated in an amount of 500 cells/150 μL/well to a 96-well multiwell plate. A test compound was dissolved in DMSO and this solution was diluted with medium to prepare a sample solution (DMSO concentration: 1% or lower). On the next day of inoculation, medium nonsupplemented with the test compound or the sample solution was added in an amount of 50 μL/well. The MTT assay was conducted immediately after the medium was added in an amount of 50 μL on the next day of cell inoculation, and after the sample solution or the medium was added to cells followed by culturing at 37° C. for 3 days in a 5% CO2 atmosphere. The MTT assay was conducted as shown below.
A 5 mg/mL MTT (3-(4,5-dimethylthiazol-2-yl)-2,5-diphenyltetrazolium bromide, Sigma-Aldrich Co., M-2128) solution was prepared using a phosphate buffer solution (Dulbecco's Phosphate-buffered Saline). This MTT solution was added in an amount of 20 μL/well. Then, the plate was cultured at 37° C. for 4 hours in a 5% CO2 atmosphere. The plate was centrifuged at 1200 rpm for 5 minutes and then the culture supernatant was removed by aspiration using a dispenser. DMSO was added in an amount of 150 μL/well to dissolve generated formazan. The plate was stirred using a plate mixer for uniform color development from each well. The absorbance of each well was measured under conditions of OD 540 nm and reference 660 nm using a plate reader (SpectraMax PLUS384, Molecular Devices, CA, USA).
The OD value measured on the day of adding the sample solution was defined as S. The OD value measured three days after addition of the sample solution was defined as T. The OD value measured three days after addition of the DMSO dilution was defined as C. T/C (%) was determined at each concentration according to the calculation formula shown below to prepare a dose response curve, from which 50% growth inhibition concentration (GI50 value) was calculated. T/C(%)=(T−S)/(C−S)×100

Data set [3] is described as follows: Metabolic stability test (microsomal metabolism). Also: tested at 1.1 µM. The data set is classed as in vitro ADME. The settings on record: human liver microsomes, 37° C., 30 minutes after addition of NADP+. As to the method: 100 μL of 100 mM phosphate buffer solution (pH 7.4) containing 3 μM test compound was added to 100 μL of reaction solution containing 100 mM phosphate buffer solution (pH 7.4), 30 mM glucose 6-phosphate, 10 mM MgCl2.6H2O, 3 units/mL glucose 6-phosphate 1-dehydrogenase, and 0.3 to 1.5 mgP/mL human liver microsomes and the mixture was incubated at 37° C. for 20 minutes. Then, 70 μL of 100 mM phosphate buffer solution (pH 7.4) containing 3 mM NADP+ was added and the mixture was further incubated at 37° C. for 30 minutes to conduct a microsomal metabolism test. The compound was quantified by the internal standard method using a quadrupole mass spectrometer connected to a high performance liquid chromatography apparatus. The metabolic stability (residual percentage of compound: MS %) was determined according to the following formula: MS(human)(%)=(peak area ratio of test compound after addition of NADP+ and incubation for 30 minutes)/(peak area ratio of test compound before addition of NADP+)×100.
(peak area ratio: peak area of test compound divided by that of internal standard substance)
For orientation: Microsomes from liver hold many membrane-bound enzymes, among them those of drug oxidation.

As to `CC(C)C1=C(C(=O)N2C[C@H](F)C[C@H]2C(=O)N2CC3(CC3)NC[C@@H]2CO)SC2=N[C@@](C)(c3ccc(Cl)nc3)[C@@H](c3ccc(Cl)c(F)c3)N21` [Example 11, {(6R)-7-[(4R)-1-{[(5R,6S)-5-(4-chloro-3-fluorophenyl)-6-(6-chloropyridin-3-yl)-3-isopropyl-6-methyl-5,6-dihydroimidazo[2,1-b][1,3]thiazol-2-yl]carbonyl}-4-fluoro-L-prolyl]-4,7-diazaspiro[2.5]oct-6-yl}methanol], the pIC50 in data set [1] was 8.49. In data set [2], the GI50 lay within 400 to 2500 nM. Also, the “MS (human) % (metabolic stability, residual percentage of compound)” value in data set [3] is 100%.
`CC(C)C1=C(C(=O)N2C[C@H](F)C[C@H]2C(=O)N2CC3(CC3)NC[C@H]2CO)SC2=N[C@@](C)(c3ccc(Cl)nc3)[C@@H](c3ccc(Cl)c(F)c3)N21` [Example 12, {(6S)-7-[(4R)-1-{[(5R,6S)-5-(4-chloro-3-fluorophenyl)-6-(6-chloropyridin-3-yl)-3-isopropyl-6-methyl-5,6-dihydroimidazo[2,1-b][1,3]thiazol-2-yl]carbonyl}-4-fluoro-L-prolyl]-4,7-diazaspiro[2.5]oct-6-yl}methanol] showed a negative-log IC50 (pIC50) in data set [1] of 8.30. In addition, in data set [2], the GI50 is 400 to 2500 nM. Moreover, the “MS (human) % (metabolic stability, residual percentage of compound)” value in data set [3] is 69%.
The like results for `CC(C)C1=C(C(=O)N2C[C@H](F)C[C@H]2C(=O)N2CC3(CC3)NC[C@@H]2C(=O)O)SC2=N[C@@](C)(c3ccc(Cl)nc3)[C@@H](c3ccc(Cl)c(F)c3)N21.Cl.Cl` [Example 13, (6R)-7-[(4R)-1-{[(5R,6S)-5-(4-chloro-3-fluorophenyl)-6-(6-chloropyridin-3-yl)-3-isopropyl-6-methyl-5,6-dihydroimidazo[2,1-b][1,3]thiazol-2-yl]carbonyl}-4-fluoro-L-prolyl]-4,7-diazaspiro[2.5]octane-6-carboxylic acid dihydrochloride] were, in that order, 8.27, 400 to 2500 nM and 100%.
The matching figures for `CC(C)C1=C(C(=O)N2C[C@H](F)C[C@H]2C(=O)N2CC3(CC3)NC[C@H]2C(=O)O)SC2=N[C@@](C)(c3ccc(Cl)nc3)[C@@H](c3ccc(Cl)c(F)c3)N21` [Example 14]: 7.80, 400 to 2500 nM and 100%.
As for `CC(C)C1=C(C(=O)N2C[C@H](F)C[C@H]2C(=O)N2CCN(C)C3(CC3)C2)SC2=N[C@@](C)(c3ccc(Cl)nc3)[C@@H](c3ccc(Cl)c(F)c3)N21` [Example 15, 7-[(4R)-1-{[(5R,6S)-5-(4-chloro-3-fluorophenyl)-6-(6-chloropyridin-3-yl)-3-isopropyl-6-methyl-5,6-dihydroimidazo[2,1-b][1,3]thiazol-2-yl]carbonyl}-4-fluoro-L-prolyl]-4-methyl-4,7-diazaspiro[2.5]octane], in data set [1], the pIC50 is 8.57. The GI50 in data set [2] is below 400 nM. Also, in data set [3], the “MS (human) % (metabolic stability, residual percentage of compound)” value was 44%.
In turn, `CC(C)C1=C(C(=O)N2C[C@H](F)C[C@H]2C(=O)N2CC3(CC3)N(C)C[C@@H]2C)SC2=N[C@@](C)(c3ccc(Cl)nc3)[C@@H](c3ccc(Cl)c(F)c3)N21` [Example 16] gave a pIC50 in data set [1] of 8.64. For the same compound, the GI50 in data set [2] was below 400 nM. In addition, the “MS (human) % (metabolic stability, residual percentage of compound)” value in data set [3] was 56%.
The matching figures for `CC(C)C1=C(C(=O)N2C[C@H](F)C[C@H]2C(=O)N2CC3(CC3)N(C)C[C@H]2C)SC2=N[C@@](C)(c3ccc(Cl)nc3)[C@@H](c3ccc(Cl)c(F)c3)N21` [Example 17]: 8.48, 400 to 2500 nM and 44%.
The like results for `CC(C)C1=C(C(=O)N2C[C@H](F)C[C@H]2C(=O)N2CCNC3(CC3)C2)SC2=N[C@@](C)(c3ccc(Cl)cc3)[C@@H](c3ccc(Cl)cc3)N21` [Example 18] were, in that order, 8.80, below 400 nM and 6%.
The matching figures for `CC(C)C1=C(C(=O)N2C[C@H](F)C[C@H]2C(=O)N2CC3(CC3)NC[C@@H]2C)SC2=N[C@@](C)(c3ccc(Cl)cc3)[C@@H](c3ccc(Cl)cc3)N21` [Example 19]: 8.80, below 400 nM and 93%.
Turning to `CC(C)C1=C(C(=O)N2C[C@H](F)C[C@H]2C(=O)N2CC3(CC3)NC[C@H]2C)SC2=N[C@@](C)(c3ccc(Cl)cc3)[C@@H](c3ccc(Cl)cc3)N21` [Example 20], in data set [1], the pIC50 was 8.85. Also, the GI50 in data set [2] was below 400 nM. Besides, the “MS (human) % (metabolic stability, residual percentage of compound)” value in data set [3] is on record as 36%.
The matching figures for `CC[C@H]1CNC2(CC2)CN1C(=O)[C@@H]1C[C@@H](F)CN1C(=O)C1=C(C(C)C)N2C(=N[C@@](C)(c3ccc(Cl)cc3)[C@H]2c2ccc(Cl)cc2)S1` [Example 21]: 8.66, below 400 nM and 96%.
The matching figures for `CC[C@@H]1CNC2(CC2)CN1C(=O)[C@@H]1C[C@@H](F)CN1C(=O)C1=C(C(C)C)N2C(=N[C@@](C)(c3ccc(Cl)cc3)[C@H]2c2ccc(Cl)cc2)S1` [Example 22]: 8.59, below 400 nM and 60%.
The like results for `CC(C)C1=C(C(=O)N2C[C@H](F)C[C@H]2C(=O)N2CCNC3(CC3)C2)SC2=N[C@@](C)(c3ccc(Cl)cc3)[C@@H](c3ccc(Cl)c(F)c3)N21` [Example 23] were, in that order, 8.80, below 400 nM and 24%.
Consider `CC(C)C1=C(C(=O)N2C[C@H](F)C[C@H]2C(=O)N2CCNC3(CC3)C2)SC2=N[C@@](C)(c3ccc(Cl)nc3)[C@@H](c3ccc(Cl)cc3)N21` [Example 26], for which the negative-log IC50 (pIC50) in data set [1] was 8.57. Further, the GI50 in data set [2] is 400 to 2500 nM. Moreover, the “MS (human) % (metabolic stability, residual percentage of compound)” value in data set [3] was 57%.
The like results for `CC(C)C1=C(C(=O)N2C[C@H](F)C[C@H]2C(=O)N2CC3(CC3)NC[C@@H]2C)SC2=N[C@@](C)(c3ccc(Cl)nc3)[C@@H](c3ccc(Cl)cc3)N21` [Example 27] were, in that order, 8.72, below 400 nM and 91%.
The matching figures for `CC(C)C1=C(C(=O)N2C[C@H](F)C[C@H]2C(=O)N2CC3(CC3)NC[C@H]2C)SC2=N[C@@](C)(c3ccc(Cl)nc3)[C@@H](c3ccc(Cl)cc3)N21` [Example 28]: 8.51, 400 to 2500 nM and 51%.
The matching figures for `CC[C@H]1CNC2(CC2)CN1C(=O)[C@@H]1C[C@@H](F)CN1C(=O)C1=C(C(C)C)N2C(=N[C@@](C)(c3ccc(Cl)nc3)[C@H]2c2ccc(Cl)cc2)S1` [Example 29]: 8.59, below 400 nM and 96%.
